The numbers were not newly measured in patent US20160184212A1, “PHOTO-ACTIVATED HYDROGELS” (L'Oreal, priority 2014, published 2016), which cites them from elsewhere.

Each structure is given as a SMILES string.

Turning to `O=C1c2ccccc2C(=O)c2cc(S(=O)(=O)[O-])ccc21.[Na+]` [anthraquinone-2-sulfonic acid sodium salt], the water solubility result is listed as “water soluble”.
